Results published in the supplement of paper PMC10307832.

Tests used:
Test in all cases: relative viability (nuclei count vs DMSO), 5 days (fraction); higher = more cells survive
NCI-H1792 = test system: NCI-H1792
Summary of the method: (§1)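 Relative viability equals treated-well nuclei counts divided by vehicle-well nuclei counts. Counts came from 4× images of lung cancer cell lines grown in 1536-well plates for 5 days after pin-tool dosing on the day after seeding. Dosing used one drug alone or a fixed anchor-drug dose plus five library-drug doses (not always all listed) in √10 steps, and values are medians of duplicate plates.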

NCI-H2405 = test system: NCI-H2405
Summary of the method: as §1

HCC-44 = test system: HCC-44
Summary of the method: as §1

UMC-11 = test system: UMC-11
Summary of the method: as §1

NCI-H838 = test system: NCI-H838
Summary of the method: as §1

NCI-H520 = test system: NCI-H520
Summary of the method: as §1

LC-2-ad = test system: LC-2-ad
Summary of the method: as §1

CAL-12T = test system: CAL-12T
Summary of the method: as §1

LCLC-97TM1 = test system: LCLC-97TM1
Summary of the method: as §1

SW 1573 = test system: SW 1573
Summary of the method: as §1

NCI-H1734 = test system: NCI-H1734
Summary of the method: as §1

EPLC-272H = test system: EPLC-272H
Summary of the method: as §1

COR-L 105 = test system: COR-L 105
Summary of the method: as §1

NCI-H1975 = test system: NCI-H1975
Summary of the method: as §1

HCC-15 = test system: HCC-15
Summary of the method: as §1

NCI-H2347 = test system: NCI-H2347
Summary of the method: as §1

NCI-H2023 = test system: NCI-H2023
Summary of the method: as §1

NCI-H1915 = test system: NCI-H1915
Summary of the method: as §1

NCI-H1563 = test system: NCI-H1563
Summary of the method: as §1

A-427 = test system: A-427
Summary of the method: as §1

`Nc1cccc2c1CN(C1CCC(=O)NC1=O)C2=O` (stereo unspecified) [Lenalidomide] + CC(C)C[C@H](NC(=O)[C@H](Cc1ccccc1)NC(=O)c1cnccn1)B(O)O [Bortezomib] (partner 0.002 µM) was tested, and the relative viability (NCI-H1792; first compound 0.253 µM) was 1, the relative viability (NCI-H1792; first compound 0.8 µM) was 0.773 and the relative viability (NCI-H1792; first compound 2.53 µM) was 0.96. It also gave a relative viability (NCI-H1792; first compound 8 µM) of 0.964, a relative viability (NCI-H2405; first compound 0.253 µM) of 0.912 and a relative viability (NCI-H2405; first compound 0.8 µM) of 0.418. The relative viability (NCI-H2405; first compound 2.53 µM) was 0.876, the relative viability (NCI-H2405; first compound 8 µM) was 0.828 and the relative viability (HCC-44; first compound 0.253 µM) was 0.904. For the same compound, the relative viability (HCC-44; first compound 0.8 µM) was 0.701, the relative viability (HCC-44; first compound 2.53 µM) was 0.912 and the relative viability (HCC-44; first compound 8 µM) was 0.832. It also gave a relative viability (UMC-11; first compound 0.253 µM) of 0.526, a relative viability (UMC-11; first compound 0.8 µM) of 0.332 and a relative viability (UMC-11; first compound 2.53 µM) of 0.856. For the same compound, the relative viability (UMC-11; first compound 8 µM) was 0.635, the relative viability (NCI-H838; first compound 0.253 µM) was 0.801 and the relative viability (NCI-H838; first compound 0.8 µM) was 0.887. For the same compound, the relative viability (NCI-H838; first compound 2.53 µM) was 1.5, the relative viability (NCI-H838; first compound 8 µM) was 0.446 and the relative viability (NCI-H520; first compound 0.253 µM) was 0.529. The relative viability (NCI-H520; first compound 0.8 µM) was 0.933, the relative viability (NCI-H520; first compound 2.53 µM) was 0.984 and the relative viability (NCI-H520; first compound 8 µM) was 0.365. It also gave a relative viability (LC-2-ad; first compound 0.253 µM) of 0.979, a relative viability (LC-2-ad; first compound 0.8 µM) of 1.04 and a relative viability (LC-2-ad; first compound 2.53 µM) of 1.03. The relative viability (LC-2-ad; first compound 8 µM) was 1.21, the relative viability (CAL-12T; first compound 0.253 µM) was 0.988 and the relative viability (CAL-12T; first compound 2.53 µM) was 1.14. The relative viability (CAL-12T; first compound 8 µM) was 0.965, the relative viability (LCLC-97TM1; first compound 0.253 µM) was 0.673 and the relative viability (LCLC-97TM1; first compound 0.8 µM) was 0.514. For the same compound, the relative viability (LCLC-97TM1; first compound 2.53 µM) was 0.705, the relative viability (LCLC-97TM1; first compound 8 µM) was 0.416 and the relative viability (SW 1573; first compound 0.253 µM) was 1.14. For the same compound, the relative viability (SW 1573; first compound 0.8 µM) was 1.05, the relative viability (SW 1573; first compound 2.53 µM) was 1.23 and the relative viability (SW 1573; first compound 8 µM) was 1.03. For the same compound, the relative viability (NCI-H1734; first compound 0.253 µM) was 0.896, the relative viability (NCI-H1734; first compound 0.8 µM) was 0.907 and the relative viability (NCI-H1734; first compound 2.53 µM) was 1.02. For the same compound, the relative viability (NCI-H1734; first compound 8 µM) was 0.807, the relative viability (EPLC-272H; first compound 0.253 µM) was 0.876 and the relative viability (EPLC-272H; first compound 2.53 µM) was 1.03. For the same compound, the relative viability (EPLC-272H; first compound 8 µM) was 0.999, the relative viability (COR-L 105; first compound 0.253 µM) was 0.792 and the relative viability (COR-L 105; first compound 0.8 µM) was 0.824. For the same compound, the relative viability (COR-L 105; first compound 2.53 µM) was 0.863, the relative viability (COR-L 105; first compound 8 µM) was 0.797 and the relative viability (NCI-H1975; first compound 0.253 µM) was 0.447. The relative viability (NCI-H1975; first compound 0.8 µM) was 0.341, the relative viability (NCI-H1975; first compound 2.53 µM) was 0.412 and the relative viability (NCI-H1975; first compound 8 µM) was 0.379. The relative viability (HCC-15; first compound 0.253 µM) was 1.02, the relative viability (HCC-15; first compound 2.53 µM) was 1.34 and the relative viability (HCC-15; first compound 8 µM) was 0.959. For the same compound, the relative viability (NCI-H2347; first compound 0.253 µM) was 1.1, the relative viability (NCI-H2347; first compound 0.8 µM) was 0.904 and the relative viability (NCI-H2347; first compound 2.53 µM) was 0.979. It also gave a relative viability (NCI-H2347; first compound 8 µM) of 0.435, a relative viability (NCI-H2023; first compound 0.253 µM) of 0.954 and a relative viability (NCI-H2023; first compound 0.8 µM) of 1.08. The relative viability (NCI-H2023; first compound 2.53 µM) was 1.08, the relative viability (NCI-H2023; first compound 8 µM) was 0.744 and the relative viability (NCI-H1915; first compound 0.253 µM) was 0.985. It also gave a relative viability (NCI-H1915; first compound 0.8 µM) of 0.69, a relative viability (NCI-H1915; first compound 2.53 µM) of 1.06 and a relative viability (NCI-H1915; first compound 8 µM) of 0.952. For the same compound, the relative viability (NCI-H1563; first compound 0.253 µM) was 0.807, the relative viability (NCI-H1563; first compound 0.8 µM) was 0.846 and the relative viability (NCI-H1563; first compound 2.53 µM) was 0.887. For the same compound, the relative viability (NCI-H1563; first compound 8 µM) was 0.748, the relative viability (A-427; first compound 0.253 µM) was 1.08 and the relative viability (A-427; first compound 2.53 µM) was 0.951. The relative viability (A-427; first compound 8 µM) was 0.908.
